Experimental data taken from patent US7320995B2, “Benzimidazoles and benzothiazoles as inhibitors of map kinase” (Eli Lilly and Company, priority 2002, dated 2008).
pIC50: −log10 of the molar value.

How the values were obtained:
angiogenesis = conditions: J. R. Jackson, et al., 1998; cited from earlier work
TNF-α = assay: Effect on intra-articular LPS induced TNF-α (synovial lavage fluid, ELISA); assay type: in vivo, female Lewis rats; conditions: orally, one hour before intra-articular LPS, lavage after two hours
Procedure: Intra-articular injection of LPS into rat […] induces the synthesis of TNF-α, which can be measured in synovial lavage fluid. High levels of TNF-α are detectable within 2 hours. Since the joint is the site where arthritis develops, this model can rapidly determine whether an orally administered compound has an effect on an inflammatory response in the synovium.
Six female Lewis rats (150-200 g) are place in each treatment group. The animals are given vehicle (1% NaCarboxymethylcellulose-0.25% Tween 80) or Example 77 (free base) (1 mg/kg, 3 mg/kg, 10 mg/kg, and 30 mg/kg) orally. One hour later, 10 μl LPS (10 μg) is administered intra-articulately into the right ankle of each rat, while the left ankle receives 10 μL of saline. After two hours, each […] is laved with 100 μL of saline. The lavage is collected and stored at −80° C. • Group#1: Vehicle (1% NaCMC-0.25% Tween 80, 1 mL, PO) • Group#2: Example 77 (free base) (1 mg/kg, 1 mLl, PO) • Group#3: Example 77 (free base) (3 mg/kg, 1 mL, PO) • Group#4: Example 77 (free base) (10 mg/kg, 1 mL, PO) • Group#5: Example 77 (free base) (30 mg/kg, 1 mL, PO)
TNF-α was measured with a commercially available ELISA kit (R&D, RTA00). […] The TMED50=10 mg/kg for Example 77 in this assay.

[1] = system: B16F10 melanoma lung metastases; assay: Inhibition of B16F10 melanoma lung metastases; assay type: in vivo, C57B16 mice; conditions: day -1 to 16
Procedure: The B16F10 melanoma cell line is obtained from the American Type Culture Collection, Rockville, Md. The cells are cultured in RPMI-1640 medium supplemented with 10% fetal calf serum. The cells grown in vitro are harvested during their exponential growth phase by gentle trypsinization, washed twice in medium, and resuspended in serum-free RPMI-1640 medium. The number of monodisperse viable cells is determined using a hemocytometer and adjusted to 1×10^6 cells/mL. Tumor cells are injected intravenously into the tail vein of normal C57B16 mice with an inoculum volume of 0.2 ml containing 200,000 cells. Mice are treated with test compound or vehicle control starting 1 day before i.v. tumor inoculation. Example 77 (free base) is prepared as a suspension formulation in 1% NaCMC/0.25% polysorbate 80 and probe sonicated in an injection volume of 1% body weight (e.g., the 30 mg/kg dose level is prepared at 3 mg/ml and 0.2 cc was administered per 20 gram mouse). Mice are treated orally tid. with the compound at 30, 10, and 3 mg/kg (90, 30, and 9 mg/kg/day) from days −1 through 16 after tumor cell inoculation. Control mice receive the vehicle alone in an identical manner. On day 16, the mice are sacrificed, and the lungs are harvested and fixed in 3% paraformaldehyde. Lung lesions are quantitated by manual counting under a dissecting microscope.
The test compound was tested in the B16F10 melanoma lung metastasis model orally at 3, 10, and 30 mg/kg, tid from one day before to 16 days after i.v. tumor inoculation (total dose 9, 30 and 90 mg/kg/day). The lungs were harvested on day 16 and lung lesions were quantitated.

[2] = system: MAPKAPK-2 phosphorylation (p38 MAPK) in B16F10 tumors; assay: B16F10 target (phosphorylated MAPKAPK-2) studies, immuno-blot of tumors; assay type: in vivo, C57B16 mice
[3] = system: MAPKAP-K2 phosphorylation in P815 tumors; assay: In vivo target inhibition study in P815 mastocytoma model; parameters: species or system DBA/2 mice; conditions: single oral dose 30 mg/kg
Procedure: In vivo target inhibition is determined by measuring the effect of inhibitor treatment on the phosphorylation of MAPKAP-K2 expressed in P815 tumor tissues. Tumors in DBA/2 mice received P815 cells subcutaneous implantation are allowed to grow to a size of 300-500 mg without treatment. Tumor bearing mice are then given oral administration of Example 77 (free base) or vehicle. To investigate time course related target inhibition by Example 77 (free base), tumors are harvested from CO2 sacrificed animals at the indicated times (3 hours, 6 hours, 12 hours, and 18 hours) after compound is dosed at 30 mg/kg. Dose-dependent target inhibition by Example 77 (free base) is investigated by harvesting tumors at 3 hours after orally given different doses of Example 77 (free base) or vehicle. Harvested tumors are immediately snap frozen onto dry ice, pulverized, homogenized and lysed in cooled lysis buffer containing proteinase and phosphatase inhibitors. After centrifugation to remove cell debris, supernatants containing 100 microgram total proteins are resuspended in 2×Tris-Glycin loading buffer and subjected to sodium dodecyl sulfate-polyacrylamide gel electrophoresis (10% Tris-Glycine) under reducing conditions. […] Expression level of phospho-p38 MAP kinase and total p-38 MAP kinase is also monitored by similar western blotting procedure.

P815 tumors = assay: Inhibition of P815 tumor growth in vivo; parameters: species or system DBA/2 mice
Procedure: Female(6-8 weeks old) DBA/2 mice (Taconic) are implanted subcutaneously into the hind flank region on day 0 with P815 cells (0.5×10^6 cells in 200 ul of RPMI 1640). P815 tumor cells are purchased from ATCC and are cultured in RPMI 1640 medium, supplemented with glutamine and 10% bovine serum at 37° C. in 5% CO2 cell culture incubator. Tumor-bearing animals are treated with oral administration of Example 77 (free base), at different doses or vehicle with frequency of three times a day started on the day of implantation. Tumor growth is monitored every 2 days by measuring perpendicular diameters. Tumor volume expressed in milligram (mg) is determined as the product of the largest diameter (a) and its perpendicular (b) according to the formula [tumor volume=a×b^2×0.536].

[4] = Rat collagen induced arthritis efficacy model; assay type: in vivo, female Lewis rats
Procedure: Female Lewis rats ((≅190 gm, Charles River Labs) are immunized with Bovine type II collagen (2 mg/ml) emulsified with an equal volume of adjuvant (aluminum hydroxide). […]. The rats are immunized with approximately […] of the emulsion intradermally on the back near the base of the tail. All animals are re-immunized 7 days later according to the same protocol. The rats begin to develop arthritis (characterized by swelling and redness of one or both ankles) from 12 to 14 days after the first immunization. The rats are equally distributed into five treatment groups at the first signs of arthritis and treatment is initiated with each rat dosed bid for 14 days.
• Group 1 Vehicle (1% NaCarboxymethylcellulose+0.25% Tween 80) 1 mL, PO, Bid×14 days • Group 2 Example 77 (free base), 5 mg/kg, 1 mL, PO, Bid×14 • Group 3 Example 77 (free base), 15 mg/kg, 1 mL, PO, Bid×14 • Group 4 Example 77 (free base), 30 mg/kg, 1 mL, PO, Bid×14 • Group 5 Prednisolone 10 mg/kg, 1 mL, PO, qd×14
Ankle diameter is measured with calipers 5 days a week and recorded. Data is expressed as the area under the curve (AUC) generated from the composite inflammation scores and statistical analysis performed.
At the termination of the study, animals were sacrificed and ankles processed for histological evaluation. […]

[5] = system: TNF-α production in mouse peritoneal macrophages; assay: Inhibition of TNF-α in vitro, mouse peritoneal macrophages, Luminex; assay type: cell-based; conditions: Peritoneal macrophage; LPS and interferon-γ stimulated mouse peritoneal macrophages, 18 hours; read-out: IC50, suppression of TNF-α in vitro
Procedure: At day 4 or 5 post-injection the mice are sacrificed and then injected i.p. with 4 mL Dulbecco's phosphate-buffered saline (BioWhittaker) and the peritoneal macrophages are withdrawn by syringe. Mouse peritoneal macrophages are counted with a hemocytometer and adjusted to 2.5×10^6 cells/ml complete media (RPMI-1640 medium containing 10% fetal bovine serum). Cells are plated in 96-well flat-bottom plates at 5×10^5 cells per 200 μl per well and allowed to settle and adhere to the bottom of the well for at least 3 hours. […] (20 μL/well). The cells are then treated with a mixture of 50 ng/L lipopolysaccharide (LPS) and 10 U/mL interferon-γ for 18 hours at 37° C. (20 μL/well). The conditioned media is harvested and assayed for TNF-α production using the Luminex procedure. […] The premixed anti-cytokine conjugated beads are vortexed (25×) vigorously for 30 seconds. The anti-cytokine conjugated beads are diluted to a 1× concentration using 1× Bio-Plex Assay Buffer. For every plate, 240 μL of the pre-mixed beads is added to 5760 μL of Bio-Plex Assay Buffer. […] The blocking buffer is filtered through using a Millipore filtration system and then toweled dry. Two washes are performed on the filter plate with 100 μl/well of Bio-Plex Assay Buffer and toweled dry. The 1× anti-cytokine conjugated beads are vortexed for 15 seconds and added 50 μL to each well. This is filtered through and toweled dry. Two washes are performed on plates with 100 μl/well of Bio-Plex Wash Buffer. Again, it is filtered through and toweled dry. 50 μL of sample or standard is added to each sample well. This is incubated for 60 seconds at room temperature on a shaker protected from light at setting 6 and then for 30 minutes at setting 3 and then placed in the refrigerator overnight. […] Standards and samples are read on a Luminex machine. These intensity readings are then converted to picogram/milliliter units based on a 12-point standard curve created in duplicate using a four-parameter logistic regression method (Bio-Plex Manager, Versions 2.0 and 3.0, Bio-Rad), and the IC50 calculated.

Nc1nccc(-c2c(-c3ccc(F)cc3)ncn2C2CCNCC2)n1 [SB22025]
inhibition of angiogenesis (angiogenesis): has been shown to inhibit angiogenesis

CC(C)S(=O)(=O)n1c(N)nc2ccc(-c3nc(-c4c(F)cccc4F)[nH]c3-c3ccccc3)cc21 [Example 77, 1-isopropylsulfonyl-2-amino-6-(2-(2,6-difluorophenyl)-5-(phenyl)-imidazol-4-yl)-benzimidazole]
TMED50, inhibition of TNF-α synthesis in synovial lavage fluid (TNF-α): 10 mg/kg
inhibition of lung metastasis formation ([1]; 3 mg/kg orally tid): 54%
inhibition of lung metastasis formation ([1]; 10 mg/kg orally tid): 73%
inhibition of lung metastasis formation ([1]; 30 mg/kg orally tid): 95%
time for which p38 MAPK activity was inhibited ([2]; 30 mg/kg, time course study): up to 9 hours
ANOVA TMED50, inhibition of MAPKAPK-2 phosphorylation ([2]; 2.5 hours after p.o. dosing): 3 mg/kg
lowest dose with appreciable inhibition of MAPKAPK-2 phosphorylation ([2]; 2.5 hours after p.o. dosing): 0.3 mg/kg
reduction of the phosphorylation level of MAPKAPK-2 in the tumors ([2]; doses >30 mg/kg): > 80%
earliest time of the inhibitory effect on MAPKAP-K2 phosphorylation [3]: 3 h
time to which the inhibitory effect on MAPKAP-K2 phosphorylation extended [3]: 12 h
inhibition of tumor volume (P815 tumors; 3 mg/kg oral tid): 55%
inhibition of tumor volume (P815 tumors; 30 mg/kg oral tid): 67%
maximum reduction in ankle diameter ([4]; 30 mg/kg PO bid x 14 days): 46%

CC(C)S(=O)(=O)n1c(N)nc2ccc(-c3nc(-c4ccncc4)[nH]c3-c3ccccc3)cc21 [Example 16, 1-isopropylsulfonyl-2-amino-6-(2-(pyridin-4-yl)-5-(phenyl)-imidazol-4-yl)-benzimidazole]
pIC50 [5]: > 7.00

CC(C)S(=O)(=O)n1c(N)nc2ccc(-c3nc(-c4cccs4)[nH]c3-c3ccccc3)cc21 [Example 1, 1-isopropylsulfonyl-2-amino-6-(2-(thien-2-yl)-5-(phenyl)-imidazol-4-yl)-benzimidazole methanesulfonate]
pIC50 [5]: > 7.00

C[C@]12C=CC(=O)C=C1CC[C@@H]1[C@@H]2[C@@H](O)C[C@@]2(C)[C@H]1CC[C@]2(O)C(=O)CO [Prednisolone, reference compound]
inflammation (ankle diameter) ([4]; 10 mg/kg PO qd x 14): reduced the inflammation to pre-arthritic levels

CC(C)S(=O)(=O)n1c(N)nc2ccc(-c3nc(-c4nccs4)[nH]c3-c3ccccc3)cc21 [Example 17, 1-isopropylsulfonyl-2-amino-6-(2-(thiazol-2-yl)-5-(phenyl)-imidazol-4-yl)-benzimidazole]
pIC50 [5]: > 7.00
